Test results published in patent US7608416B2, “Targeting mPGES-1 as a treatment for inflammation which avoids cardiovascular risk” (The Trustees of the University of Pennsylvania, priority 2004, dated 2009).

Key:
[1] = test system: platelet aggregation induced by collagen; assay: Whole blood platelet aggregation assay, collagen-induced, ex vivo; assay type: cell-based, mouse; details: 10 nM, collagen 2 μg/ml
Experimental: 250 μl blood was mixed with 750 μl of sodium chloride at 37° C. Platelet aggregation was performed using a 500 Whole Blood Lumi-Aggregometion System (Chrono-Log Corp, Havertown, Pa.) as previously described ([…] et al., 1983, Thromb. Haemost. 50: 852-6; Booth et al., 1998, Can. J. Physiol. Pharmacol. 76: 811-3; Emery et al., 1995, Arterioscler. Thromb. Vasc. Biol. 15: 748-53). Samples were pretreated with or without 10 nM cicaprost for 1 minute, and aggregation was initiated by addition of 2 μg/ml collagen.

IP (PGI2 receptor) [2] = assay: Direct measurement of blood pressure (MAP) after i.v. cicaprost; assay type: in vivo, mouse; details: IP-/- mice, 1 μg/kg intravenously
Experimental: (§1) (iii) Direct measurement of blood pressure: Mice were anesthetized (ketamine 100 mg/kg, acepromazine 5 mg/kg) and placed on a temperature-controlled panel. The right internal jugular vein and left carotid artery were cannulated with PE-10 tubing. The arterial catheter was connected to a Capto SP844 pressure transducer (Capto, Horten, Norway), and blood pressure (BP) was monitored continuously with a Powerlab/8SP system (AD Instruments Inc, Colorado Springs, Colo.), as previously described (Hui et al., 2004, Circulation 110: 3360-6; Rocca et al., 2000, Nat. Med. 6: 219-21). Blood pressure and heart rate were continuously monitored for 20-40 min until stable values were obtained. After the equilibration period and the baseline BP was recorded, mice were injected via the right internal jugular vein with cicaprost (1 μg/kg in 4 ml/kg saline) as a bolus. The same volume of saline was injected before cicaprost administration to exclude volume-mediated BP changes. The BP was continuously recorded until it returned to pretreatment baseline.
(§2) The cardiovascular consequences of deleting just one copy of the IP on cardiovascular function in vivo was studied. Mean arterial pressure (MAP) was measured directly via carotid artery catheterization in anesthetized WT, IP^+/−, and IP^−/− littermates on C57BL/6 genetic background, following administration of the IP agonist cicaprost (Cica) 1 μg/kg intravenously (FIG. 3). The maximal decline evoked by Cica in MAP was 36±3.5% from pretreatment baseline in WT, 24%±3.3% in IP+/− and 0% in IP−/− littermates(F=42, n=5; P<0.0001). […] A similar effect of IP deletion was seen on the inhibitory effect of 10 nM cicaprost on platelet aggregation induced by collagen 2 μg/ml ex vivo (FIG. 4). […] The impact of IP deletion on the time to thrombotic carotid arterial occlusion, induced by green laser activation of Rose Bengal, which causes free radical catalyzed vascular injury, was also gene-dose dependent (FIG. 5, left panel). The time to occlusion fell from 66.3±5.1 min in WTs to […] in IP^+/− to 29.7±7.6 min in IP^−/− mice (F=6.5, n=9-10, P<0.0055). Inhibition of PGHS-2 by DFU also accelerated thrombogenesis, from 59.4±10.4 min to 33.4±4.3 min (n=7-8, P<0.05; FIG. 5, right panel). Thus, the mean impact of DFU on time to occlusion (56.2% of WT value) was intermediate between that of IP^+/− ([…]) and IP^−/− (45.5%) mice.

IP (PGI2 receptor) [3] = target: T1, IP (PGI2 receptor) (Mus musculus, UniProt P43252); assay: as above; assay type: in vivo; details: 1 μg/kg intravenously; for Maximal decline in MAP from pretreatment baseline: C57BL/6, anesthetized
T1 construct: anesthetized WT, IP^+/−, and IP^−/− littermates on C57BL/6 genetic background, following administration of the IP agonist cicaprost; from tissue; host or cells: whole animal: anesthetized WT, IP+/- and IP-/- mice, C57BL/6 background, in vivo
T1 sequence (P43252 1-412): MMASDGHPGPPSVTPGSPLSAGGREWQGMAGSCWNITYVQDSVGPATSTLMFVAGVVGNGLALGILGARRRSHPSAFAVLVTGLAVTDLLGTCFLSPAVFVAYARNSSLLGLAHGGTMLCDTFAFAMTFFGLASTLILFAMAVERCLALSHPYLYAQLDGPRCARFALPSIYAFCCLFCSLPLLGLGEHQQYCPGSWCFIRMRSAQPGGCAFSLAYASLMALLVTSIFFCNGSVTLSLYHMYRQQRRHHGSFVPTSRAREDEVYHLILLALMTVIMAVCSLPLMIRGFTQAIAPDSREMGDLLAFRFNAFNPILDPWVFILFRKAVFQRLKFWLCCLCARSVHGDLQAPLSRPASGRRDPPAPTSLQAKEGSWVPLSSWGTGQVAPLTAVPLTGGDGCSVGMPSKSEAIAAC
Experimental: as §1, §2

[4] = target: T2, thromboxane receptor (TP) (Mus musculus, UniProt P30987); assay: U46619 induced sudden death; assay type: in vivo; details: PGHS-2 KO and PGHS-2 Y385F mice compared to WT, 0.2 mg/kg intravenous, within 15 min
T2 construct: they received a rapid intravenous injection of U46619 (0.2 mg/kg in PBS, Cayman Chemical) via the tail vein; from tissue; host or cells: whole animal: WT, PGHS-2 KO and PGHS-2 Y385F mice, in vivo
T2 sequence (P30987 1-341): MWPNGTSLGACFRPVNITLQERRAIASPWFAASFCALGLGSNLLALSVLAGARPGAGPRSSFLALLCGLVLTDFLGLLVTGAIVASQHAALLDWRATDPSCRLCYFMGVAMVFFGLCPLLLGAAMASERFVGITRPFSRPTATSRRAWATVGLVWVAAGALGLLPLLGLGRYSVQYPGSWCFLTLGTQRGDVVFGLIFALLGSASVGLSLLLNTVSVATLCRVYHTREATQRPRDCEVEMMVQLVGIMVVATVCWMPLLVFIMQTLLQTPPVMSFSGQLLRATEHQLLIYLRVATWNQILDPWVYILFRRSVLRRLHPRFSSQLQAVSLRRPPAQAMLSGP
Experimental: (iii) U46619 induced sudden death: This model is based on a model established previously (Momi et al., 2000, Eur. J. Pharmacol. 397: 177-85). Briefly, mice (3-4 months old) were anesthetized with sodium pentobarbital. Then they received a rapid intravenous injection of U46619 (0.2 mg/kg in PBS, Cayman Chemical) via the tail vein. Heart rate was monitored for 15 minutes prior to sacrifice.

[5] = test system: PGI2 biosynthesis (urinary 2,3-dinor 6-keto PGF1α, PGIM); assay: Urinary PGIM (2,3-dinor 6-keto PGF1α) excretion, 24 h urine, GC/MS; assay type: in vivo, mouse; details: DFU, WT male mice, before vs after administration (FIG. 2)
Experimental: Eicosanoid analyses: Urinary TxM and PGIM were measured in twenty four hour urines collected in metabolic cages. After extraction and purification by thin layer chromatography, they were analyzed by a stable isotope dilution reverse phase (C18) HPLC/tandem mass spectrometry assay and gas chromatography/mass spectrometry, respectively, as previously described (Egan et al., 2005, Circulation 111: 334-242).
The relative contribution of the PGHS enzymes, PGHS-1 and PGHS-2, to the biosynthesis of PGI2 and TxA2 was assessed by measuring urinary 2,3-dinor 6-keto PGF1α (PGIM) and 2,3-dinor TxB2 (TxM) respectively. […] PGIM and TxM was also assessed in PGHS-1 knockdown (KD) mice. […] Traditional NSAIDS and NSAIDs selective for PGHS-2 inhibit COX activity, not POX activity. Tyr385 in PGHS (ovine PGH-1 numbering) is critical for cyclooxygenase (COX) catalysis, but is uninvolved in peroxidase (POX) activity. PGIM and TxM was also assessed in PGHS-2^Y385F mice, in which the cyclooxygenase, but not the peroxidase (POX) function, of PGHS-2 is inactivated, thereby mimicking the effect of a selective PGHS-2 inhibitor (Yu et al., 2005a, J. Clin. Invest. (Submitted manuscript)).

mice [6] = details: mouse, in vivo
Experimental: (i) Photochemical vascular injury: This model is an adaptation of one previously described method (Yu et al., 2005, J. Clin. Invest. 115:986-95). Briefly, mice were anesthetized with sodium pentobarbital (80 mg/kg, intraperitoneally). The left common carotid artery was isolated and a Doppler flow probe (Model 0.5 VB, Transonic Systems Co., NY) was applied. The probe was connected to a flowmeter (Transonic Model T105) and interpreted with a computerized data acquisition program (Powerlab, AD Instruments, CO). Just before i.v. injection of Rose Bengal (50 mg/kg body weight, Fisher Scientific, NJ), a 1.5-mW green light laser (540 nm) (Melles Griot Inc, Carlsbad, Calif.) was applied to the desired site of injury at a distance of 5 cm from the carotid artery. Blood flow was monitored up to 120 minutes after injection or until stable occlusion occurred. Stable occlusion was defined as a blood flow of 0 ml/min for 3 minutes. To confirm occlusive thrombosis, carotid arterial segments subjected to injury were excised and embedded in paraffin. Sections were then stained with hematoxylin and eosin.

[7] = test system: PGE2 biosynthesis (urinary PGEM); assay: Urinary PGEM by LC/MS/MS; assay type: in vivo, mouse; details: DFU, WT male mice, vs pre-administration value (FIG. 11)
Experimental: Urinary PGEM was measured by LC/MS/MS as follows: First, 10 ng of hexadeuterated PGEM (9,15-dioxo-11α-hydroxy-2,3,4,5-tetranor-prostan-1,20-dioic-17,17,18,18,19,19-d6 acid; Cayman Chemical Co., Ann Arbor, Mich.) was added as an internal standard to 0.1 ml of mouse urine. Next, 50 μL of 1 g/ml methoxyamine HCl was added, and the sample was mixed and allowed to stand at room temperature for 15 minutes. The sample was then diluted to 1.0 ml with water and loaded on a StrataX solid phase extraction (SPE) cartridge (Phenomenex, Torrance, Calif.). The SPE was eluted with 1.0 mL of 5% acetonitrile in ethyl acetate, dried, dissolved in 200 μL 10% acetonitrile in water, and injected for LC/MS/MS analysis. Transitions monitored were m/z 385→336 for the endogenous PGE-M and 391→342 for the internal standard.
PGE2 biosynthesis was assessed in mice having inhibited or deleted PGHS-1 or PGHS-2 function using a mass spectrometric assay (FIG. 9) for the major PGE metabolite, 11α-hydroxy-9,15-dioxo-2,3,4,5-tetranor-prostane-1,20-dioic acid (PGEM). […] Thus, unlike PGI2 biosynthesis, both PGHS-1 and PGHS-2 each contribute substantially to PGE2 biosynthesis.

mice [8] = assay: Tail cuff blood pressure measurement; assay type: in vivo, mouse
Experimental: (i) Tail Cuff measurement: Resting systolic blood pressure was measured in conscious, 3-4 month old mice using a computerized, noninvasive tail-cuff system, BP-2000 Blood Pressure Analysis System™ (Visitech Systems, Inc. Apex, N.C.). […] Mice were adapted to the system for 14 days by taking blood pressure measurements during 25 minute long sessions. The sessions were held once daily between 15:00 and 18:00. After the adaptation period, blood pressure was recorded daily for 3 consecutive days in the same way. Data were collected and analyzed using updated BP 2000 Analysis Software.

mice [9] = assay: Collagen induced platelet consumption; assay type: in vivo, mouse; details: WTs, PGHS-2 Y385F and PGHS-2 KO mice, 2 min after i.v. collagen plus epinephrine
Experimental: (ii) Collagen induced platelet consumption: Briefly, mice (8 weeks old) were weighed and anesthetized with sodium pentobarbital (80 mg/kg). 100 μl of a mixture of collagen (250 μg/ml) and epinephrine (15 μg/ml) in 0.9% NaCl was injected rapidly into the tail vein. […] After thorough mixing, platelets were counted by automated multispecies hematology analyzers (CDC Technologies), as previously described (Gresele et al, 1990, Thromb. Haemost. 64:80-6).

[10] = 3 month old mice, mixed C57BL/6×129/sv, regular chow

With `CCC#CC[C@H](C)[C@H](O)C#C[C@@H]1[C@H]2C/C(=C/COCC(=O)O)C[C@H]2C[C@H]1O` [cicaprost] the “Inhibition of platelet aggregation” value ([1]; IP-/- mice) was “not achieved”, the inhibition at 0.01 µM ([1]; Mus musculus, Platelet, IP+/- mice, read-out: Inhibition of platelet aggregation, % of the maximal inhibition observed in WTs) was 86.7% and the “Duration of the depressor response” value (IP (PGI2 receptor) [2]) was “no change in MAP”. The “Maximal decline in MAP from pretreatment baseline” value (shortened to “Maximal decline in MAP”) (IP (PGI2 receptor) [2]; C57BL/6, anesthetized) was 0%, the “Duration of the depressor response” value (IP (PGI2 receptor) [3]; IP+/- mice) was 5.3 ± 1.1 min and the “Maximal decline in MAP” value (IP (PGI2 receptor) [3]; IP+/- mice) was 24%±3.3. For the same molecule, the “Duration of the depressor response” value (IP (PGI2 receptor) [3]; WT mice) was 10.8 ± 2.5 min and the “Maximal decline in MAP” value (IP (PGI2 receptor) [3]; WT mice) was 36±3.5%.
For `CCCCC[C@H](O)/C=C/[C@@H]1[C@@H](C/C=C\CCCC(=O)O)[C@H]2CO[C@@H]1C2` [U46619], the “Frequency of sudden death” value [4] was “augmented”.
`CC1(C)OC(=O)C(c2cccc(F)c2)=C1c1ccc(S(C)(=O)=O)cc1` [DFU, 5,5-dimethyl-3-(3-fluorophenyl)-4-(4-methylsulphonyl)phenyl-2(5H)-furanone] was tested, and the “Urinary 2,3-dinor 6-keto PGF1α (PGIM)” value [5] was “depressed significantly”, the “Mean impact on time to occlusion, % of WT value” (mice [6]) was 56.2% and the “Urinary PGEM” value [7] was “depressed PGEM significantly”.
`Cc1ccc(-c2cc(C(F)(F)F)nn2-c2ccc(S(N)(=O)=O)cc2)cc1` [celecoxib] was tested, and the “Diastolic blood pressure compared to WTs” value (mice [8]; [10]) was “elevated significantly”, the “Systolic blood pressure compared to WTs” value (mice [8]; [10]) was “elevated significantly” and the “Hypertensive effect in PGHS-1 KDs compared to WTs” value (mice [8]; PGHS-1 KD mice) was “attenuated”.
collagen was tested, and the Circulating platelet count (mice [9]) was “dose-dependent decrese in platelets”.
